From patent publication US20230174538A1, “Tricyclic heterocycles” (Merck Patent GmbH, priority 2020, published 2023)

Assays:
YAP-TEAD interaction = assay: SK-HEP-1 reporter assay (8xTEAD responsive elements driving NanoLuc luciferase); assay type: cell-based; conditions: Homo sapiens, SK-HEP1, SK-HEP-1 reporter assay
How it was run: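 SK-HEP-1 cells stably carrying an 8×TEAD-element NanoLuc reporter were treated in duplicate with 10-point dilutions from a top final 30 μM (0.3% DMSO). After 24 h at 37 °C, luciferase activity was read by luminescence with NanoGlo lysis/substrate reagent, and IC50 values were derived.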

SW620 Yap KO cells = assay: Viability assay in SW620 Yap KO (Yap independent) cells, CyQUANT; assay type: cell-based; conditions: Homo sapiens, SW-620
Method: (§1) Viability Assay in NCI-H226 (Yap-Dependent) and SW620 Yap KO (Yap Independent) Cells
(§2) The ability of YAP-TEAD inhibitors to inhibit tumor cell growth was evaluated using two different cell lines: NCI-H226, which is a YAP dependent cell line, and SW620 cells, where YAP and TAZ were knocked out using CRISPR to generate a YAP independent cell line.
(§3) For the assay, cells were treated in duplicates with the test compounds in a 10-point dose, 1:3 dilution steps, with the top concentration starting at 30 μM (final concentration in assay). After a 96 hour incubation at 37° C., 95% rH, and 5% CO2, a cell-permeant DNA-binding dye that stains only healthy cells (CyQUANT®, Promega) was added to the cells, allowing the quantification of cell viability.
(§4) Cell Media: The NCI-H226 cells were cultured in the following media: RPMI 1640, +10% FBS, +1× GlutaMAX, +10 mM HEPES, +0.5% Pen/Strep. The SW620-KO cells were cultured in the following media: DMEM/F-12, +10% FBS, +1× GlutaMAX, +10 mM HEPES, +0.5% Pen/Strep.
(§5) Reagents: The reagents used are listed below:
(§6) Cell culture: The cells were examined using an inverted microscope to check for health, cell density, etc. To dissociate adherent cells, the monolayer of cells was washed once with pre-warmed PBS. After removing the PBS, 3 ml pre-warmed Accutase was added to a F75 flask, dispersed evenly and the flask was allowed to sit in incubator for ˜4-5 minutes.
(§7) When a single cell suspension was obtained, 7 ml of prewarmed growth media was added and resuspended with the cells. The cell suspension was transferred to a sterile 15 ml conical centrifuge tube, and spun for 5 min at 300×g, RT. The supernatant was discarded and the pellet was resuspended in 10 ml of pre-warmed growth media.
(§8) The total cell count was determined, and 20 μl of the desired cell number was added to each well of a 384 well plate using a Multidrop Combi. The plates were then incubated for 24 hours at 37° C., 95% rH, and 5% CO2.
(§9) Compound treatment: 24 hours after seeding, the cells were treated with compounds.
(§10) A 1:333 dilution of compounds, diluted in DMSO, was made to get a final concentration of 0.3% DMSO per well. To transfer the compounds to the assay plate, 120 nl was shot from Labcyte low dead volume plates to the cell plates containing 20 μl media/well with the ECHO 555 liquid handling system.
(§11) After treatment, the cells were fed with 20 μl fresh pre-warmed assay media using a Multidrop combi.
(§12) The assay plates were then incubated for 96 h at 37° C., 95% rH, and 5% CO2.
(§13) 96 h after treatment 30 μl of CyQuant® reagent was added to the assay plates using a Multidrop combi in the dark. The plates were then incubated for 1 hour at 37° C., 95% rH and 5% CO2. Thereafter, the assay plates were removed from the incubator and allowed to equilibrate to RT for 30 min in the dark without lid. Finally, they were measured using an EnVision microplate reader with a FITC bottom read program.

[1] = tested on: NCI-H226 human mesothelioma tumor cells; assay: NCI-H226 in vivo efficacy study (subcutaneous xenograft); conditions: H2d Rag2 female mice, NCI-H226 tumors, po qd for 29 days
Method: NCI-H226 In Vivo Efficacy Study
7-9-week-old H2d Rag2 female mice (own breeding, Taconic-Denmark) were inoculated subcutaneously with 5×10^6 NCI-H226 human mesothelioma tumor cells in the right flank. Tumor growth and body weight was measured twice weekly using caliper. Tumor volume was calculated using the formula TV=L×W×W/2.
When tumor volume reached approximately 75-150 mm^3, animals were randomized (Day 0) into treatment groups (n=9-10/group) and treated perorally (po) once daily (qd) for 29 days with either vehicle (20% hydroxypropyl β-cyclodextrin in 50 mM PBS pH 7.4) or Compound no. 2. Compound no. 2 was tested at dosing levels of 1, 3, 10, 30, and 100 mg/kg, respectively. Results are depicted in FIG. 1 (tumor growth over time for vehicle group and each dosage group) and FIG. 2 (final tumor volume of vehicle group and each dosage group).
Statistical analysis of tumor volumes between treatment groups was done using repeated measures analysis of covariance (RM-ANCOVA) in a linear mixed effects model followed by least-squares means pairwise comparisons.
The animal experiment was performed under regulation of the German animal welfare act and in accordance with the EU laboratory animal directive for the area of animal experiments.

NCI-H226 cells = assay: Viability assay in NCI-H226 (Yap-dependent) cells, CyQUANT; assay type: cell-based; conditions: Homo sapiens
Method: as §1, §2, §3, §4, §5, §6, §7, §8, §9, §10, §11, §12, §13

IC50 (YAP-TEAD interaction) [nM]	IC50 (SW620 Yap KO cells) [nM]	IC50 (NCI-H226 cells) [nM]	melting point [°C]	Compound	dosing levels showing maximal tumor growth inhibition [1] [mg/kg]	tumor growth inhibition compared to vehicle treated group ([1]; 1, 3, 10, 30 and 100 mg/kg, all tested dosing levels, p-value <0.001)
1 to 10	> 30000	–	–	Cn1cc2c3cc(C(=O)O)ccc3n(-c3ccc(C(F)(F)F)cc3)c2n1 [Example 2, 2-methyl-8-[4-(trifluoromethyl)phenyl]-2H,8H-pyrazolo[3,4-b]indole-5-carboxylic acid]	> 10	Significant tumor growth inhibition
10 to 100	> 30000	100 to 1000	179 to 181	CCOc1ccc(-n2c3ccc(C(=O)O)cc3c3cn(C)nc32)cc1 [Example 15, 8-(4-Ethoxyphenyl)-2-methyl-2H,8H-pyrazolo[3,4-b]indole-5-carboxylic acid]	–	–
10 to 100	1000 to 10000	1 to 100	111 to 112	COC(=O)c1ccc2c(c1)c1nn(C)cc1n2-c1ccc(C(F)(F)F)cc1 [Example 16, Methyl 2-methyl-4-[4-(trifluoromethyl)phenyl]pyrazolo[4,3-b]indole-7-carboxylate]	–	–
> 10000	> 30000	> 10000	208 to 210	Cn1cc2c(n1)c1cc(C#N)ccc1n2-c1ccc(C(F)(F)F)cc1 [Example 19, 2-methyl-4-[4-(trifluoromethyl)phenyl]pyrazolo [4,3-b]indole-7-carbonitrile]	–	–
1 to 10	10000 to 30000	100 to 1000	223 to 224	C=CC(=O)Nc1ccc2c(c1)c1cn(C)nc1n2-c1ccc(C(F)(F)F)cc1 [Example 20, N-[2-methyl-8-[4-(trifluoromethyl)phenyl]pyrazolo[3,4-b]indol-5-yl]prop-2-enamide]	–	–
1 to 10	10000 to 30000	1000 to 10000	185 to 187	C=CC(=O)NCc1ccc2c(c1)c1cn(C)nc1n2-c1ccc(C(F)(F)F)cc1 [Example 21, N—([2-methyl-8-[4-(trifluoromethyl)phenyl]pyrazolo [3,4-b]indol-5-yl]methyl)prop-2-enamide]	–	–
10 to 100	1000 to 10000	100 to 1000	169 to 171	Cc1nc2c(s1)c1cc(C(=O)O)ccc1n2-c1ccc(C(F)(F)F)cc1 [Example 25, 2-methyl-4-[4-(trifluoromethyl)phenyl]-[1,3]thiazolo[4,5-b]indole-7-carboxylic acid]	–	–
1 to 10	> 30000	1 to 100	300	Cn1cc2c3cc(C(=O)NC4CC4)ccc3n(-c3ccc(C(F)(F)F)nc3)c2n1 [Example 27, N-cyclopropyl-2-methyl-8-[6-(trifluoromethyl)pyridin-3-yl]-2H,8H-pyrazolo[3,4-b]indole-5-carboxamide]	–	–
> 10000	–	–	181 to 185	Cn1cc2c3cc(C(=O)NCc4ccncc4)ccc3n(-c3ccc(C(F)(F)F)cc3)c2n1 [Example 28, 2-methyl-N—[(pyridin-4-yl)methyl]-8-[4-(trifluoromethyl)phenyl]-2H, 8H-pyrazolo[3,4-b]indole-5-carboxamide]	–	–
100 to 10000	> 30000	1000 to 10000	110 to 111	Cn1cc2c3cc(C(=O)O[C@@H]4O[C@H](C(=O)O)[C@@H](O)[C@H](O)[C@H]4O)ccc3n(-c3ccc(C(F)(F)F)cc3)c2n1 [Example 30, (2S,3S,4S,5R,6S)-3,4,5-trihydroxy-6-{2-methyl-8-[4-(trifluoromethyl)phenyl]-2H,8H-pyrazolo[3,4-b]indole-5-carbonyloxy}oxane-2-carboxylic acid]	–	–
1 to 10	> 30000	1 to 100	–	CN(C)S(=N)(=O)c1ccc2c(c1)c1nn(C)cc1n2-c1ccc(C(F)(F)F)cc1 (stereo not drawn) [Example 36, N,N,2-Trimethyl-4-[4-(trifluoromethyl)phenyl]-2H,4H-pyrazolo[4,3-b]indole-7-sulfonoimidamide]	–	–
10 to 100	> 30000	1 to 100	–	Cn1cc2c3cc(C(=O)NCc4n[nH]cc4C4CC4)ccc3n(-c3ccc(C(F)(F)F)cc3)c2n1 [Example B22, N-[(4-cyclopropyl-1H-pyrazol-3-yl)methyl]-2-methyl-8-[4-(trifluoromethyl)phenyl]-2H,8H-pyrazolo[3,4-b]indole-5-carboxamide]	–	–
10 to 100	> 30000	1 to 100	–	CCn1cc(C(O)CNC(=O)c2ccc3c(c2)c2cn(C)nc2n3-c2ccc(C(F)(F)F)cc2)cn1 (stereo not drawn) [Example B36, N-[2-(1-ethyl-1H-pyrazol-4-yl)-2-hydroxyethyl]-2-methyl-8-[4-(trifluoromethyl)phenyl]-2H,8H-pyrazolo[3,4-b]indole-5-carboxamide]	–	–
10 to 100	> 30000	100 to 1000	–	COCC(NC(=O)c1ccc2c(c1)c1cn(C)nc1n2-c1ccc(C(F)(F)F)cc1)c1cnn(C)c1 (stereo not drawn) [Example B68, N-[2-methoxy-1-(1-methyl-1H-pyrazol-4-yl)ethyl]-2-methyl-8-[4-(trifluoromethyl)phenyl]-2H,8H-pyrazolo[3,4-b]indole-5-carboxamide]	–	–

Compound	IC50 (YAP-TEAD interaction) [nM]	IC50 (SW620 Yap KO cells) [nM]	IC50 (NCI-H226 cells) [nM]	melting point [°C]	dosing levels showing maximal tumor growth inhibition [1] [mg/kg]	tumor growth inhibition compared to vehicle treated group ([1]; 1, 3, 10, 30 and 100 mg/kg, all tested dosing levels, p-value <0.001)
Cn1cc2c3cc(CNC(=O)CCl)ccc3n(-c3ccc(C(F)(F)F)cc3)c2n1 [Example 24, 2-chloro-N—([2-methyl-8-[4-(trifluoromethyl)phenyl]pyrazolo[3,4-b]indol-5-yl]methyl)acetamide]	100 to 10000	1000 to 10000	100 to 1000	221 to 222	–	–
